From patent publication US10131639B2, “Formulations of 2-(tert-butylamino)-4-((1R,3R,4R)-3-hydroxy-4methylcyclohexylamino)-pyrimidine-5-carboxamide” (Signal Pharmaceuticals, LLC, priority 2014, dated 2018)

Experiment: Solid state physical stability under stress conditions (XRPD)
Format: physicochemical
Conditions: XRPD vs initial material
Protocol: A portion of the sample was loaded to a 4 mL clear glass vial. Four samples were prepared for each salt. The vials (open) were stored under 4 different stress conditions, respectively.

- Physical stability (open vial, 2 weeks) (80° C./75% RH, listed as Compound 1 (free base)): physically stable
- Physical stability (open vial, 2 weeks) (80° C./75% RH, listed as Free base): no change
- Physical stability (open vial, 2 weeks) (80° C., listed as Compound 1 (free base)): physically stable
- Physical stability (open vial, 2 weeks) (80° C., listed as Free base): no change
Structure (SMILES): C[C@@H]1CC[C@@H](Nc2nc(NC(C)(C)C)ncc2C(N)=O)C[C@H]1O [Compound 1, 2-(tert-butylamino)-4-((1R,3R,4R)-3-hydroxy-4-methylcyclohexylamino)-pyrimidine-5-carboxamide]
